The source of these data is ChEMBL document CHEMBL5291721, “A preclinical secondary pharmacology resource illuminates target-adverse drug reaction associations of marketed drugs” (Nat Commun, 2023).

Bounds are passed on as bounds.

Targets include Histamine H1 receptor (Homo sapiens, UniProt P35367); Histamine H3 receptor (Homo sapiens, UniProt Q9Y5N1); D(3) dopamine receptor (Homo sapiens, UniProt P35462).
Test [1] has as its target Beta-2 adrenergic receptor (Homo sapiens, UniProt P07550). It counts as functional, cell-based.
In test [2] the target is Sodium-dependent dopamine transporter (Homo sapiens, UniProt Q01959).
Sequence of Sodium-dependent dopamine transporter (Q01959 whole entry): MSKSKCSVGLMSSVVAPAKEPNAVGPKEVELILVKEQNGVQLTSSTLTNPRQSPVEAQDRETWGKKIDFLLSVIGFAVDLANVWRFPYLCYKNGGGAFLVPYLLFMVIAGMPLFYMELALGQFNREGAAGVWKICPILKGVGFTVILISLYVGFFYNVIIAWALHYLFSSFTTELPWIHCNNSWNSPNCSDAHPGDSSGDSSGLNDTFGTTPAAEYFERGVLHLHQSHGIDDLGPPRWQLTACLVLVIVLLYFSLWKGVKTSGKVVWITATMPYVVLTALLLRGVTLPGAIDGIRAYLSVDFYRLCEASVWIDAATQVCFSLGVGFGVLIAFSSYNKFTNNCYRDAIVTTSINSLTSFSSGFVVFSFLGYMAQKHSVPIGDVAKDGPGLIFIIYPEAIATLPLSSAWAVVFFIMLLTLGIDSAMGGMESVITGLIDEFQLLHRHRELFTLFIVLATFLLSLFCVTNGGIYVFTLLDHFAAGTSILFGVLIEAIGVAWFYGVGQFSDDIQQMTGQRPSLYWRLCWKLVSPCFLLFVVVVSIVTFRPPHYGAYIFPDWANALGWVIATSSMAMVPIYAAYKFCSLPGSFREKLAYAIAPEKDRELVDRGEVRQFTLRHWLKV
The next test concerns the target T1, Glucocorticoid receptor (Homo sapiens, UniProt P04150).
T1 sequence (P04150 whole entry): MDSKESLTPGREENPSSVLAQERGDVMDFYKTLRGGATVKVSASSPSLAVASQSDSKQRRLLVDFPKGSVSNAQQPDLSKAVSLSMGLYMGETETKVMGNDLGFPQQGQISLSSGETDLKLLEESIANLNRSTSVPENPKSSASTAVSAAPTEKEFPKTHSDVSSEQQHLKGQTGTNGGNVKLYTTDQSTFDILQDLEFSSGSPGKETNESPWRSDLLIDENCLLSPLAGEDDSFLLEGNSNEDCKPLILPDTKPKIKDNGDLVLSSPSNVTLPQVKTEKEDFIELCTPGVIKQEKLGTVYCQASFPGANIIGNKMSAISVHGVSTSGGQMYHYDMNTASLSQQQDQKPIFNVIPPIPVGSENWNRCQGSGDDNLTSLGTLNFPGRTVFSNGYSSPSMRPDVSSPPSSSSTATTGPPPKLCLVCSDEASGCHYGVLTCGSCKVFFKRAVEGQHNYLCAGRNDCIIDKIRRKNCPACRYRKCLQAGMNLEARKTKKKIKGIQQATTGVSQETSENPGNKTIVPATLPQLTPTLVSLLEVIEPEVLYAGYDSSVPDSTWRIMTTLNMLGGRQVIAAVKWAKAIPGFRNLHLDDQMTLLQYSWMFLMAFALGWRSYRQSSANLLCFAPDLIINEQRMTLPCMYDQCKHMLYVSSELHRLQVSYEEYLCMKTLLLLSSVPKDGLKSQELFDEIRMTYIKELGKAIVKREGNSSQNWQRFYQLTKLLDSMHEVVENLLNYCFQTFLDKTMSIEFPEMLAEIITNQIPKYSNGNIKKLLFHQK
It counts as functional.

In test [3] the target is Muscarinic acetylcholine receptor M3 (Homo sapiens, UniProt P20309).
Sequence of Muscarinic acetylcholine receptor M3 (P20309 whole entry): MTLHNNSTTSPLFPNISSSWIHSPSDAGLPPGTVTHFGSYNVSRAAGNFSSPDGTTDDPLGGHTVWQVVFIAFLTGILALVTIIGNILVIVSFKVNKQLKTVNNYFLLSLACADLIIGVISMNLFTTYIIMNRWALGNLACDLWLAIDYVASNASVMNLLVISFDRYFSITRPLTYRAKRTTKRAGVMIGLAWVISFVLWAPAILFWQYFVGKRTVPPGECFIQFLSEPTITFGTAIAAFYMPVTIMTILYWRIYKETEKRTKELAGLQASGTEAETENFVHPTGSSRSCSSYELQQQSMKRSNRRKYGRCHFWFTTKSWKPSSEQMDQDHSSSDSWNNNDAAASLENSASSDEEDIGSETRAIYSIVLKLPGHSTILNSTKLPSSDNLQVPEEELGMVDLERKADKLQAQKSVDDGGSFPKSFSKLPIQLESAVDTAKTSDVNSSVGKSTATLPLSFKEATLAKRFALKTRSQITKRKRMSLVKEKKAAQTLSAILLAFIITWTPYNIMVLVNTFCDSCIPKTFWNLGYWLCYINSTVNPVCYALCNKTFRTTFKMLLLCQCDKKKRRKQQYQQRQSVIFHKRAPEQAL
Test [4] addresses Sodium-dependent serotonin transporter (Homo sapiens, UniProt P31645).
The target in test [5] is T2, Mu-type opioid receptor (Homo sapiens, UniProt P35372).
T2 sequence (P35372 whole entry): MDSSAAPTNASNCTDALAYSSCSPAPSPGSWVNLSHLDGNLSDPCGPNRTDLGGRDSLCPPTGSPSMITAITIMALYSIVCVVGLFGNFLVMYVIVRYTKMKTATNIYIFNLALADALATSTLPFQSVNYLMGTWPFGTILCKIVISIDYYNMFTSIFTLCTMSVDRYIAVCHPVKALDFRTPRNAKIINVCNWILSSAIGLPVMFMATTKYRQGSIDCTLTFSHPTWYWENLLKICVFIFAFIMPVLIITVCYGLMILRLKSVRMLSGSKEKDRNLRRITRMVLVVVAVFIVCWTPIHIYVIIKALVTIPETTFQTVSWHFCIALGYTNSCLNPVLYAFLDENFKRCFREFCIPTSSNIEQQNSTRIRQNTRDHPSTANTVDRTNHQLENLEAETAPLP
Test [6] concerns the target Epidermal growth factor receptor (Homo sapiens, UniProt P00533). The format is functional.
A further test addresses Histamine H2 receptor (Homo sapiens, UniProt P25021). It counts as functional, cell-based.
Test [7] concerns the target T2, Mu-type opioid receptor. As to the kind of experiment: biochemical. It counts as functional.
The target of test [8] is T3, Muscarinic acetylcholine receptor M2 (Homo sapiens, UniProt P08172).
T3 sequence (P08172 whole entry): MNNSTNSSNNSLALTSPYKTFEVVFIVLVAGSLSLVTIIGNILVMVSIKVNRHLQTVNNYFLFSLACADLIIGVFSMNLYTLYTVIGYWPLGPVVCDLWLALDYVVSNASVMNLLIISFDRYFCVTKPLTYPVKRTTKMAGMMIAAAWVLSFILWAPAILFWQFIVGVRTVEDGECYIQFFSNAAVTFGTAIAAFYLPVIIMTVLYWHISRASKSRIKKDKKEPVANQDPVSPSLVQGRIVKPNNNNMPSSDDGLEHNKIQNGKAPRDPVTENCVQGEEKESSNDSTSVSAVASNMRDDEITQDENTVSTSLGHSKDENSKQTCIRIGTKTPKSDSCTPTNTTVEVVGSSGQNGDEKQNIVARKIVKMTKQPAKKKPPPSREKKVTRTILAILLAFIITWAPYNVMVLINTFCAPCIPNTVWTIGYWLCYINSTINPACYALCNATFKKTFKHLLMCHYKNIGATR

A further test has as its target Acetylcholinesterase (Homo sapiens, UniProt P22303). The format is functional.
Test [9] deals with Prostaglandin G/H synthase 1 (Homo sapiens, UniProt P23219). The format is functional.
In test [10] the target is T4, Thromboxane A2 receptor (Homo sapiens, UniProt P21731).
T4 sequence (P21731 whole entry): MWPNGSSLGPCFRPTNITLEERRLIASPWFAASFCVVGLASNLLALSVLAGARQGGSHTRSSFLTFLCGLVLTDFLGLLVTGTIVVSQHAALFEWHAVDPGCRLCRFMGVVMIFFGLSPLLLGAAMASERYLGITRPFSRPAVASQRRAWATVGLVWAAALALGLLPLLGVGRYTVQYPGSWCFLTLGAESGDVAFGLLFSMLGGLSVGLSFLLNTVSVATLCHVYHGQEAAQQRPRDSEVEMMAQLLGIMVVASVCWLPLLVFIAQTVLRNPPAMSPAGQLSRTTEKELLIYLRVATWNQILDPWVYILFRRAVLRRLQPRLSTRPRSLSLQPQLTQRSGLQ
It counts as functional, cell-based.

Test [11] concerns the target T4, Thromboxane A2 receptor. It counts as functional, cell-based. This is another data set of the same source.
Note: assay procedure not described here.

Sequence of Epidermal growth factor receptor (P00533 whole entry): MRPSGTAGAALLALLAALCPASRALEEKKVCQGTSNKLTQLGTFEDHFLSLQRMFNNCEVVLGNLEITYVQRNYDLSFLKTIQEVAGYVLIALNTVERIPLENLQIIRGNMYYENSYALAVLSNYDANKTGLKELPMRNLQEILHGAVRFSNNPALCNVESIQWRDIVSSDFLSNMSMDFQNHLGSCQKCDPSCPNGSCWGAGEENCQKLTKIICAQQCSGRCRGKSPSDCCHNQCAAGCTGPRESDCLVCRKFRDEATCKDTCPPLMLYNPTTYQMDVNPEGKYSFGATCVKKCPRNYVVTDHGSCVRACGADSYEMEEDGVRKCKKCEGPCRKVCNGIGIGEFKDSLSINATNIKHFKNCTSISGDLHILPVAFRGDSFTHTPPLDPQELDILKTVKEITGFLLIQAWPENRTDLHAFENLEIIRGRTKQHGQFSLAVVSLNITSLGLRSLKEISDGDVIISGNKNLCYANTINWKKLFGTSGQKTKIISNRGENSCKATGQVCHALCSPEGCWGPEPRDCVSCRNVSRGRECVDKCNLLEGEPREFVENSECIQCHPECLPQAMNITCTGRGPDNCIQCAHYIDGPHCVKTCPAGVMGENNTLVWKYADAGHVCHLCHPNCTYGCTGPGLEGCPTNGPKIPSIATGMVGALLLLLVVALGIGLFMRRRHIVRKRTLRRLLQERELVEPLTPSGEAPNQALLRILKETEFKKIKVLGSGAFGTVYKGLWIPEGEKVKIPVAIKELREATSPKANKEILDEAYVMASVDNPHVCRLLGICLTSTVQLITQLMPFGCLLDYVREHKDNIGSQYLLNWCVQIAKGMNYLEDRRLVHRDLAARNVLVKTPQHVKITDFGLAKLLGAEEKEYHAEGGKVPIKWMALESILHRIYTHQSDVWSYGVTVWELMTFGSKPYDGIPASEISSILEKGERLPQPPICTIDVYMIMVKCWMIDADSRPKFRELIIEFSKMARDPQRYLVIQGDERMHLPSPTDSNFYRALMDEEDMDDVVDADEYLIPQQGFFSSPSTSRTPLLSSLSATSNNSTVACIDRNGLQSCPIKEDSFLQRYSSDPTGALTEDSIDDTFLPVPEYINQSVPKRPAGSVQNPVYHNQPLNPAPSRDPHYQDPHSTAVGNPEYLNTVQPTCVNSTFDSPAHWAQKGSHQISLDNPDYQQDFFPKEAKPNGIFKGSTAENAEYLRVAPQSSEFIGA
Sequence of Histamine H1 receptor (P35367 whole entry): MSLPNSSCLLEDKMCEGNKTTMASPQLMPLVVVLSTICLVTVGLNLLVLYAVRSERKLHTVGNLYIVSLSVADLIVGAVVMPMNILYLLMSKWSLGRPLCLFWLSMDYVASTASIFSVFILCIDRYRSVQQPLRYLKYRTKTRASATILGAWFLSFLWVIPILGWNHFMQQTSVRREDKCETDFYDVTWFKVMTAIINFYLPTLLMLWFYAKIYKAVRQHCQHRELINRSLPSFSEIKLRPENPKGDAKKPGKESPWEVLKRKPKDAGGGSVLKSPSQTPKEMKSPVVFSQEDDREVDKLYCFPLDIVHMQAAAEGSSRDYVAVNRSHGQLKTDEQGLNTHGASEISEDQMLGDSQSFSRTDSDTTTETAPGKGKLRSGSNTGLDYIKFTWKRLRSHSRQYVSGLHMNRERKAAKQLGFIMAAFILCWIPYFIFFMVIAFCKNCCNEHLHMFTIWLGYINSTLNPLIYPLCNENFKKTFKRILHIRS
Sequence of Histamine H2 receptor (P25021 whole entry): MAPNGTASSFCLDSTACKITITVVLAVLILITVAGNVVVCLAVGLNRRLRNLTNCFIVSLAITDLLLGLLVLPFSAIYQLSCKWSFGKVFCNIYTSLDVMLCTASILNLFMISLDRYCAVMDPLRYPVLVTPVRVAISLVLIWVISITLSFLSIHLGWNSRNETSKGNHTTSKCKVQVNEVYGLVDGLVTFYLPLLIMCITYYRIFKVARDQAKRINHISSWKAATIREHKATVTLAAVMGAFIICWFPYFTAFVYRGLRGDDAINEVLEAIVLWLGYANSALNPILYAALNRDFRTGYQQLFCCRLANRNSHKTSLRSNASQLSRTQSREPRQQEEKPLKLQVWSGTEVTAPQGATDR
Sequence of Beta-2 adrenergic receptor (P07550 whole entry): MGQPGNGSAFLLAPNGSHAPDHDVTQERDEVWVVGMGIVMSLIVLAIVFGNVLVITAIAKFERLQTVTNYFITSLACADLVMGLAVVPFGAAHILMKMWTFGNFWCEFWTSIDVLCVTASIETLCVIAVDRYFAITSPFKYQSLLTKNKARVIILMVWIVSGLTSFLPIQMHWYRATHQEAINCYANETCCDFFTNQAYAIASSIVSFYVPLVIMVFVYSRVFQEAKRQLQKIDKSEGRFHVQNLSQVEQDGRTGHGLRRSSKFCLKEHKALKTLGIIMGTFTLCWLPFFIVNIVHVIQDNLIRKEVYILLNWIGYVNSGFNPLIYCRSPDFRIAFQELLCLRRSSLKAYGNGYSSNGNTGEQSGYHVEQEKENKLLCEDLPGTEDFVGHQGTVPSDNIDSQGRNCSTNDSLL
Sequence of Sodium-dependent serotonin transporter (P31645 whole entry): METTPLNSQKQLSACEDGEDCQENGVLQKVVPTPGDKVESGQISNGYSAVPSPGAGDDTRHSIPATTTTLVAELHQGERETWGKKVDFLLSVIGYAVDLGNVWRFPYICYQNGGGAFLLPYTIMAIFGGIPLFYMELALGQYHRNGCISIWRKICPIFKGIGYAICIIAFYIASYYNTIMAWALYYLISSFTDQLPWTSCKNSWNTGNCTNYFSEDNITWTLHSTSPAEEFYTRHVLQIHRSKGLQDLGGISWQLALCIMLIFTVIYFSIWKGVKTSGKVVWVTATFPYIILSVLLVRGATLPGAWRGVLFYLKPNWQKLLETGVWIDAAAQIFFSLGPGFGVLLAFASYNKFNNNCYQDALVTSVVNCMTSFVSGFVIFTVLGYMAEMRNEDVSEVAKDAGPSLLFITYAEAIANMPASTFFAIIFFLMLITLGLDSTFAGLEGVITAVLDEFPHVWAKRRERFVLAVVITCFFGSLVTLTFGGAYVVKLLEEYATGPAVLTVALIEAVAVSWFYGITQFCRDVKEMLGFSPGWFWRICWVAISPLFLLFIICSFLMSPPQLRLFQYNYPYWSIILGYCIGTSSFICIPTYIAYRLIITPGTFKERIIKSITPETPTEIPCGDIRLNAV

Regarding `CCOCC(O)COc1ccc(NC(=O)CC[S+](C)C)cc1` (stereo not drawn), the AC50 (in test [1]; in [2]; at Glucocorticoid receptor; in test [3]; at Histamine H1 receptor; in test [4]) was more than 30 µM each time. On Mu-type opioid receptor [5], this molecule had an AC50 of more than 30 µM.
Regarding `CCC[C@@]1(CCc2ccccc2)CC(O)=C([C@H](CC)c2cccc(NS(=O)(=O)c3ccc(C(F)(F)F)cn3)c2)C(=O)O1`, the AC50 was more than 30 µM in [1]; 27 µM in test [2]; more than 30 µM at Glucocorticoid receptor; more than 30 µM in test [3]; more than 30 µM on Histamine H1 receptor; more than 30 µM in test [6]. The AC50 (in test [4]; on Mu-type opioid receptor [5]) was more than 30 µM each time.
For the molecule `CN1CC2c3ccccc3Oc3ccc(Cl)cc3C2C1` (stereo not drawn) [ASENAPINE], the AC50 in test [1] is more than 30 µM; in test [2], 11 µM; at Glucocorticoid receptor it was more than 30 µM; in [3], more than 30 µM; in test [6], more than 30 µM; on Mu-type opioid receptor [5], more than 30 µM.
Consider `Cn1cnc2c(F)c(Nc3ccc(Br)cc3F)c(C(=O)NOCCO)cc21` [BINIMETINIB], for which the AC50 (in test [1]; in test [2]; on Glucocorticoid receptor; in test [3]; at Histamine H1 receptor; in test [6]) was more than 30 µM each time. Moreover, the AC50 (in [4]; at Mu-type opioid receptor [5]) was more than 30 µM in each case.
Take `C[C@H](CCC(=O)O)[C@H]1CC[C@H]2[C@@H]3[C@H](O)C[C@@H]4C[C@H](O)CC[C@]4(C)[C@H]3CC[C@]12C` [CHENODIOL]: the half-maximal activity concentration (AC50) (in test [1]; in test [2]; in [3]; on Histamine H1 receptor; in test [6]; on Mu-type opioid receptor [5]) was more than 30 µM in each case.
Regarding `O=C(O)[C@H]1/C(=C/CO)O[C@@H]2CC(=O)N21` [CLAVULANIC ACID], the half-maximal activity concentration (AC50) (in [1]; in test [2]; at Glucocorticoid receptor; in test [3]; at Histamine H1 receptor; in [4]) was more than 30 µM throughout. Moreover, the AC50 on Mu-type opioid receptor [5] is more than 30 µM.
Take `CC(C)/N=c1\cc2n(-c3ccc(Cl)cc3)c3ccccc3nc-2cc1Nc1ccc(Cl)cc1` [CLOFAZIMINE]: the AC50 was more than 30 µM in test [1]; more than 30 µM in [2]; more than 30 µM on Glucocorticoid receptor; more than 30 µM in test [3]; 8.56 µM at Histamine H1 receptor; 20 µM in [4]. In addition, the AC50 on Histamine H2 receptor and on Mu-type opioid receptor [7] was more than 30 µM throughout.
For the molecule `NCC1(CC(=O)O)CCCCC1` [GABAPENTIN], the AC50 (in test [1]; on Histamine H3 receptor; in [2]; in test [8]; on Glucocorticoid receptor; at Acetylcholinesterase) was more than 30 µM in each case. The AC50 is more than 30 µM in [9]; more than 30 µM at Thromboxane A2 receptor [10]; more than 30 µM at Thromboxane A2 receptor [11]; more than 30 µM in test [6]; more than 30 µM at D(3) dopamine receptor; more than 10 µM on Histamine H2 receptor. Further, the AC50 at Mu-type opioid receptor [5] is more than 30 µM.
For `C[C@@H](O)[C@H]1C(=O)N2C(C(=O)O)=C(SCCN=CN)C[C@H]12` [IMIPENEM ANHYDROUS], the AC50 (in test [1]; in [2]; at Glucocorticoid receptor; in [3]; on Histamine H1 receptor; in test [6]) was more than 300 µM each time. Moreover, the AC50 (in test [4]; at Mu-type opioid receptor [5]) was more than 300 µM throughout.
For `O=C1[C@@H]2[C@H]3CC[C@H](C3)[C@@H]2C(=O)N1C[C@@H]1CCCC[C@H]1CN1CCN(c2nsc3ccccc23)CC1` [LURASIDONE], the AC50 in test [1] is more than 30 µM; at Histamine H3 receptor it was more than 30 µM; at Glucocorticoid receptor it was more than 10 µM; on Acetylcholinesterase, more than 30 µM; in [9] it was more than 30 µM; on Thromboxane A2 receptor [10], more than 30 µM. Besides, the AC50 on Thromboxane A2 receptor [11] was more than 30 µM; on Histamine H1 receptor it was 8.7 µM; in test [6], more than 30 µM; in test [4] it was more than 30 µM; on D(3) dopamine receptor it was 0.0042 µM; on Mu-type opioid receptor [5] it was more than 30 µM.
Regarding `CO[C@@H]1[C@@H](OC(N)=O)[C@@H](O)[C@H](Oc2ccc3c(O)c(NC(=O)c4ccc(O)c(CC=C(C)C)c4)c(=O)oc3c2C)OC1(C)C` [NOVOBIOCIN], the concentration at half-maximal activity (AC50) (in test [1]; in [2]; on Glucocorticoid receptor; in test [3]; on Histamine H1 receptor; in test [6]) was more than 30 µM throughout. In addition, the AC50 (in test [4]; on Mu-type opioid receptor [5]) was more than 30 µM in each case.
For the molecule `CC(=O)SCC(Cc1ccccc1)C(=O)NCC(=O)OCc1ccccc1` (stereo not drawn) [RACECADOTRIL], the AC50 (in test [2]; on Glucocorticoid receptor; in [3]; on Histamine H1 receptor; in test [4]; at Histamine H2 receptor) was more than 30 µM each time. The AC50 on Mu-type opioid receptor [7] and at Mu-type opioid receptor [5] was more than 30 µM each time.
Take `COc1cc2c(cc1OC)C1CC(=O)C(CC(C)C)CN1CC2` (stereo not drawn) [TETRABENAZINE]: the AC50 (in test [1]; in test [2]; in test [3]; at Histamine H1 receptor; in test [6]; in test [4]) was more than 30 µM in each case. Also, the AC50 at Mu-type opioid receptor [5] is more than 30 µM.
Consider `CC(C)(CO)c1cc2cc(NC(=O)C3(c4ccc5c(c4)OC(F)(F)O5)CC3)c(F)cc2n1C[C@@H](O)CO` [TEZACAFTOR], for which the AC50 (in test [1]; in [2]; at Glucocorticoid receptor; in test [3]; at Histamine H1 receptor; in [4]) was more than 30 µM each time. This molecule also returned an AC50 on Mu-type opioid receptor [5] of more than 30 µM.
Take `c1cnc2cc3c(cc2n1)[C@@H]1CNC[C@H]3C1` [VARENICLINE]: the concentration at half-maximal activity (AC50) (in test [1]; in test [2]; in test [3]; on Histamine H1 receptor; in [6]; in test [4]) was more than 30 µM each time. The half-maximal activity concentration (AC50) at Mu-type opioid receptor [5] was more than 30 µM.
Turning to `Nc1c2c(nc3ccccc13)CCCC2O` (stereo not drawn) [VELNACRINE], the AC50 (in test [1]; in test [2]; on Glucocorticoid receptor; in test [3]; at Histamine H1 receptor; in [6]) was more than 30 µM throughout. The AC50 (in [4]; at Mu-type opioid receptor [5]) was more than 30 µM in each case.

For orientation: AC50 means the concentration at which the activity in the assay is half-maximal.
